Experimental findings from patent US20250019410A1, “PROCESS FOR THE PREPARATION OF TIRZEPATIDE OR PHARMACEUTICALLY ACCEPTABLE SALT THEREOF” (Sun Pharmaceutical Industries Ltd., priority 2021, published 2025) are described below.

The format of this data set is physicochemical. The procedure:
The solubility of the salts in water (see Table 3), methanol (see Table 4) and phosphate buffer (see Table 5) were tested.

As to `CC[C@H](C)[C@H](NC(=O)[C@H](CC(C)C)NC(=O)[C@H](Cc1c[nH]c2ccccc12)NC(=O)[C@H](CCC(N)=O)NC(=O)[C@@H](NC(=O)[C@H](Cc1ccccc1)NC(=O)[C@H](C)NC(=O)[C@H](CCCCNC(=O)COCCOCCNC(=O)COCCOCCNC(=O)CC[C@H](NC(=O)CCCCCCCCCCCCCCCCCCC(=O)O)C(=O)O)NC(=O)[C@H](CCC(N)=O)NC(=O)[C@H](C)NC(=O)[C@@H](NC(=O)[C@H](CCCCN)NC(=O)[C@H](CC(=O)O)NC(=O)[C@H](CC(C)C)NC(=O)C(C)(C)NC(=O)[C@@H](NC(=O)[C@H](CO)NC(=O)[C@H](Cc1ccc(O)cc1)NC(=O)[C@H](CC(=O)O)NC(=O)[C@H](CO)NC(=O)[C@@H](NC(=O)[C@H](Cc1ccccc1)NC(=O)[C@@H](NC(=O)CNC(=O)[C@H](CCC(=O)O)NC(=O)C(C)(C)NC(=O)[C@@H](N)Cc1ccc(O)cc1)[C@@H](C)O)[C@@H](C)O)[C@@H](C)CC)[C@@H](C)CC)C(C)C)C(=O)N[C@@H](C)C(=O)NCC(=O)NCC(=O)N1CCC[C@H]1C(=O)N[C@@H](CO)C(=O)N[C@@H](CO)C(=O)NCC(=O)N[C@@H](C)C(=O)N1CCC[C@H]1C(=O)N1CCC[C@H]1C(=O)N1CCC[C@H]1C(=O)N[C@@H](CO)C(N)=O` [Acetic acid content - 1.06%], the “Solubility - in Water (descriptive term only)” value is listed as “Practically insoluble in water”.
As to `CC[C@H](C)[C@H](NC(=O)[C@H](CC(C)C)NC(=O)[C@H](Cc1c[nH]c2ccccc12)NC(=O)[C@H](CCC(N)=O)NC(=O)[C@@H](NC(=O)[C@H](Cc1ccccc1)NC(=O)[C@H](C)NC(=O)[C@H](CCCCNC(=O)COCCOCCNC(=O)COCCOCCNC(=O)CC[C@H](NC(=O)CCCCCCCCCCCCCCCCCCC(=O)O)C(=O)O)NC(=O)[C@H](CCC(N)=O)NC(=O)[C@H](C)NC(=O)[C@@H](NC(=O)[C@H](CCCCN)NC(=O)[C@H](CC(=O)O)NC(=O)[C@H](CC(C)C)NC(=O)C(C)(C)NC(=O)[C@@H](NC(=O)[C@H](CO)NC(=O)[C@H](Cc1ccc(O)cc1)NC(=O)[C@H](CC(=O)O)NC(=O)[C@H](CO)NC(=O)[C@@H](NC(=O)[C@H](Cc1ccccc1)NC(=O)[C@@H](NC(=O)CNC(=O)[C@H](CCC(=O)O)NC(=O)C(C)(C)NC(=O)[C@@H](N)Cc1ccc(O)cc1)[C@@H](C)O)[C@@H](C)O)[C@@H](C)CC)[C@@H](C)CC)C(C)C)C(=O)N[C@@H](C)C(=O)NCC(=O)NCC(=O)N1CCC[C@H]1C(=O)N[C@@H](CO)C(=O)N[C@@H](CO)C(=O)NCC(=O)N[C@@H](C)C(=O)N1CCC[C@H]1C(=O)N1CCC[C@H]1C(=O)N1CCC[C@H]1C(=O)N[C@@H](CO)C(N)=O` [Ammonium content- 0.25%], the “Solubility - in Water (descriptive term only)” value is given as “practically insoluble in water”.
